We go through 27 compounds from PubChem BioAssay AID330 (DTP/NCI, 2004).

Several values for one entry are separate records, joined by “and”; a condition that tells them apart may be missing. Identical values can stand only once. Toxic doses and inconclusive results are not listed.

For the test, the system named is P388 leukemia ip, CD2F1 mice, survival T/C. Description: NCI In Vivo Anticancer Drug Screen. Data for tumor model P388 Leukemia (intraperitoneal) in CD2F1 (CDF1) mice. Conditions: endpoint: median survival time, higher = longer survival. The method, boiled down: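 Mice carrying the transplanted tumor received test compound or vehicle. Survival was recorded in each group, and the value is the treated-group measurement divided by that of the vehicle-treated control group.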

The mark [1] stands for this setting: dose: 50.0 mg/kg/injection, schedule: Q01DX009 (ip), vehicle: Klucel (hydroxypropylcellulose) (HPC).
Setting [2] is: dose: 50.0 mg/kg/injection, schedule: Q01DX005 (ip), vehicle: saline with Tween-80.
Where [3] appears, read: dose: 100.0 mg/kg/injection, schedule: Q01DX005 (ip), vehicle: saline with Tween-80.
The mark [4] stands for this setting: dose: 50.0 mg/kg/injection, schedule: Q01DX005 (ip), vehicle: Klucel (hydroxypropylcellulose) (HPC).
The mark [5] stands for this setting: dose: 100.0 mg/kg/injection, schedule: Q01DX005 (ip), vehicle: Klucel (hydroxypropylcellulose) (HPC).
The mark [6] stands for this setting: dose: 200.0 mg/kg/injection, schedule: Q01DX005 (ip), vehicle: Klucel (hydroxypropylcellulose) (HPC).
[7] abbreviates: dose: 100.0 mg/kg/injection, schedule: Q04DX003 (ip), vehicle: saline with Tween-80.
Where [8] appears, read: dose: 200.0 mg/kg/injection, schedule: Q04DX003 (ip), vehicle: saline with Tween-80.
Setting [9] is: dose: 400.0 mg/kg/injection, schedule: Q04DX003 (ip), vehicle: saline with Tween-80.
[10] abbreviates: dose: 60.0 mg/kg/injection, schedule: Q01DX005 (ip), vehicle: saline with Tween-80.
Setting [11] is: dose: 120.0 mg/kg/injection, schedule: Q01DX005 (ip), vehicle: saline with Tween-80.
[12] abbreviates: dose: 240.0 mg/kg/injection, schedule: Q01DX005 (ip), vehicle: saline with Tween-80.
[13] abbreviates: dose: 12.5 mg/kg/injection, schedule: Q01DX005 (ip), vehicle: Klucel (hydroxypropylcellulose) (HPC).
[14] abbreviates: dose: 25.0 mg/kg/injection, schedule: Q01DX005 (ip), vehicle: Klucel (hydroxypropylcellulose) (HPC).
Setting [15] is: dose: 25.0 mg/kg/injection, schedule: Q01DX009 (ip), vehicle: saline with Tween-80.
The mark [16] stands for this setting: dose: 6.25 mg/kg/injection, schedule: Q01DX009 (ip), vehicle: Klucel (hydroxypropylcellulose) (HPC).
[17] abbreviates: dose: 60.0 mg/kg/injection, schedule: Q01DX005 (ip), vehicle: saline.
Setting [18] is: dose: 120.0 mg/kg/injection, schedule: Q01DX005 (ip), vehicle: saline.
The mark [19] stands for this setting: dose: 240.0 mg/kg/injection, schedule: Q01DX005 (ip), vehicle: saline.

Regarding `C[N+]1=CN(S(=O)(=O)C2C=CC=CC=C2)C(C)(C)C1(C)C`, the T/C is, setting by setting: (dose: 100.0 mg/kg/injection, schedule: Q04DX003 (ip), vehicle: saline) 103 % of control; (dose: 200.0 mg/kg/injection, schedule: Q04DX003 (ip), vehicle: saline) 103 % of control; (dose: 400.0 mg/kg/injection, schedule: Q04DX003 (ip), vehicle: saline) 99 % of control.

Turning to `CCOC(=O)C(Cc1csc2ccc(Cl)cc12)(NC(C)=O)C(=O)OCC`, the T/C runs as follows: under setting [1], 96 % of control; (dose: 100.0 mg/kg/injection, schedule: Q01DX009 (ip), vehicle: Klucel (hydroxypropylcellulose) (HPC)) 96 % of control; (dose: 200.0 mg/kg/injection, schedule: Q01DX009 (ip), vehicle: Klucel (hydroxypropylcellulose) (HPC)) 94 % of control.

Turning to `CC1(C)[C@@H]2CC[C@]3(C)[C@H]4CC[C@]5(C)[C@@H](O)CC[C@H]5[C@@H]4CC[C@]3(O2)[C@@H]1O`, the T/C was 91 % of control under setting [2] and 91 % of control under setting [3].

On to `CCOC(=O)C1=C(c2ccccc2)OC(N)=C(C#N)C1c1ccccc1` (stereo not drawn), for which the T/C reads like this: under setting [4], 107 % of control; under setting [5], 103 % of control; under setting [6], 101 % of control.

With `CC(=O)N1C(=O)N(Cl)C(=O)C1(C)c1cccs1` (stereo not drawn), the T/C under setting [7] was 100 % of control, the T/C under setting [8] is 95 % of control and the T/C under setting [9] is 90 % of control.

As to `COCOc1cccc2c1C(O)CC2` (stereo not drawn), the T/C was 100 % of control under setting [10], 100 % of control under setting [11] and 98 % of control under setting [12].

For the compound `CC(C)(C)[N]=[V]([Cl])([Cl])[Cl]`, the T/C by setting is: under setting [13], 98 % of control; under setting [14], 91 % of control; under setting [4], 98 % of control and 91 % of control.

For `Oc1nc(-c2ccccc2)sc1-c1ccc(Cl)cc1`, the T/C by setting is: (dose: 12.5 mg/kg/injection, schedule: Q01DX009 (ip), vehicle: saline with Tween-80) 93 % of control; under setting [15], 86 % of control; (dose: 200.0 mg/kg/injection, schedule: Q01DX009 (ip), vehicle: saline with Tween-80) 98 % of control.

In the case of `CCOP(=S)(N/N=C(\C)c1ccc(C)s1)OCC`, the T/C runs as follows: under setting [4], 104 % of control; under setting [5], 113 % of control; under setting [6], 114 % of control.

`O=CC1CCC(c2ccc3ccccc3c2)O1` (stereo not drawn): the T/C under setting [10] was 106 % of control, the T/C under setting [11] is 114 % of control and the T/C under setting [12] was 114 % of control.

With `[C-]#[O+].[C-]#[O+].[C-]#[O+].[C-]#[O+].[Mo].c1cnc2c(c1)ccc1cccnc12`, the T/C was 100 % of control under setting [16]; 95 % of control (dose: 12.5 mg/kg/injection, schedule: Q01DX009 (ip), vehicle: Klucel (hydroxypropylcellulose) (HPC)); 93 % of control (dose: 25.0 mg/kg/injection, schedule: Q01DX009 (ip), vehicle: Klucel (hydroxypropylcellulose) (HPC)); 95 % of control under setting [1].

Consider `Cn1ccnc1[Si](C)(C)C`, for which the T/C runs as follows: under setting [10], 101 % of control; under setting [11], 107 % of control; under setting [12], 99 % of control.

As to `COc1cc2c(cc1C1COc3cc4occc4cc3C1=O)OCO2` (stereo not drawn), the T/C runs as follows: under setting [13], 97 % of control; under setting [14], 95 % of control; under setting [4], 92 % of control; under setting [5], 95 % of control; under setting [6], 95 % of control.

`c1ccc(CC2CCc3ccccc3/C2=N/OCC2CO2)cc1` (stereo not drawn): the T/C is 101 % of control (dose: 30.0 mg/kg/injection, schedule: Q01DX005 (ip), vehicle: saline with Tween-80); 97 % of control under setting [10]; 98 % of control under setting [11].

In the case of `CC(C)[Si]1(C(C)C)N[Si](C(C)C)(C(C)C)N1`, the T/C runs as follows: (dose: 15.0 mg/kg/injection, schedule: Q01DX005 (ip), vehicle: saline) 115 % of control; (dose: 30.0 mg/kg/injection, schedule: Q01DX005 (ip), vehicle: saline) 105 % of control; under setting [17], 98 % of control; under setting [18], 106 % of control; under setting [19], 97 % of control.

Regarding `CCCCCCCCCC(C)CC(=O)NCCCN(C)CCCCN(C)C` (stereo not drawn), the T/C (dose: 0.78 mg/kg/injection, schedule: Q01DX009 (ip), vehicle: Klucel (hydroxypropylcellulose) (HPC)) was 107 % of control; the T/C (dose: 1.56 mg/kg/injection, schedule: Q01DX009 (ip), vehicle: Klucel (hydroxypropylcellulose) (HPC)) is 105 % of control; the T/C (dose: 3.13 mg/kg/injection, schedule: Q01DX009 (ip), vehicle: Klucel (hydroxypropylcellulose) (HPC)) was 112 % of control; the T/C under setting [16] was 87 % of control.

With `N#CC(C(=O)C(=O)Nc1cccc(C(F)(F)F)c1)c1cccc(Cl)c1` (stereo not drawn), the T/C by setting is: under setting [10], 105 % of control; under setting [11], 112 % of control; under setting [12], 103 % of control.

`CC1=CN2C(c3ccccc3)=NON(c3ccc(C)cn3)C2C=C1` (stereo not drawn): the T/C (dose: 200.0 mg/kg/injection, schedule: Q01DX005 (ip), vehicle: saline with Tween-80) is 92 % of control.

With `COC1=C(OC)C(=O)C(CC=C(C)C)=C(C)C1=O`, the T/C is, setting by setting: (dose: 12.5 mg/kg/injection, schedule: Q01DX009 (ip), vehicle: saline + alcohol) 118 % of control; (dose: 25.0 mg/kg/injection, schedule: Q01DX009 (ip), vehicle: saline + alcohol) 104 % of control and 110 % of control; (dose: 50.0 mg/kg/injection, schedule: Q01DX009 (ip), vehicle: saline + alcohol) 103 % of control and 105 % of control; (dose: 100.0 mg/kg/injection, schedule: Q01DX009 (ip), vehicle: saline + alcohol) 151 % of control.

Turning to `Cn1cc2c(=O)n(C)ncc2n1`, the T/C runs as follows: under setting [17], 100 % of control; under setting [18], 109 % of control; under setting [19], 100 % of control.

For the compound `O=C1C2C3C=CC(C2C(=O)N1CN1CCOCC1)C1C2C(=O)N(CN4CCOCC4)C(=O)C2C31` (stereo not drawn), the T/C under setting [15] is 120 % of control.

For `OCC1CC(c2ccccc2)=NO1` (stereo not drawn), the T/C runs as follows: (dose: 60.0 mg/kg/injection, schedule: Q01DX005 (ip), vehicle: Klucel (hydroxypropylcellulose) (HPC)) 101 % of control; (dose: 120.0 mg/kg/injection, schedule: Q01DX005 (ip), vehicle: Klucel (hydroxypropylcellulose) (HPC)) 100 % of control; (dose: 240.0 mg/kg/injection, schedule: Q01DX005 (ip), vehicle: Klucel (hydroxypropylcellulose) (HPC)) 101 % of control.

Consider `CCCCCC1(CCCCCCCC(O)CC(=O)OCC)OCCO1` (stereo not drawn), for which the T/C by setting is: (dose: 100.0 mg/kg/injection, schedule: Q01DX001 (ip), vehicle: Klucel (hydroxypropylcellulose) (HPC)) 100 % of control; (dose: 200.0 mg/kg/injection, schedule: Q01DX001 (ip), vehicle: Klucel (hydroxypropylcellulose) (HPC)) 108 % of control; (dose: 400.0 mg/kg/injection, schedule: Q01DX001 (ip), vehicle: Klucel (hydroxypropylcellulose) (HPC)) 100 % of control.

Take `CC(C)(C)SC(=O)C[Si](C)(C)C`: the T/C is, setting by setting: (dose: 50.0 mg/kg/injection, schedule: Q04DX003 (ip), vehicle: saline with Tween-80) 103 % of control and 105 % of control; under setting [7], 107 % of control and 94 % of control; under setting [8], 111 % of control and 118 % of control; under setting [9], 110 % of control.

For `CCCCCCCn1cnc2cc(N3CCOCC3)c([N+](=O)[O-])cc2c1=O`, the T/C runs as follows: (dose: 100.0 mg/kg/injection, schedule: Q04DX003 (ip), vehicle: Klucel (hydroxypropylcellulose) (HPC)) 102 % of control; (dose: 200.0 mg/kg/injection, schedule: Q04DX003 (ip), vehicle: Klucel (hydroxypropylcellulose) (HPC)) 95 % of control; (dose: 400.0 mg/kg/injection, schedule: Q04DX003 (ip), vehicle: Klucel (hydroxypropylcellulose) (HPC)) 100 % of control.

Consider `CCOC(OCC)C(C)(C)CNC`, for which the T/C is 109 % of control (dose: 100.0 mg/kg/injection, schedule: Q01DX001 (ip), vehicle: saline sonified) and 113 % of control (dose: 200.0 mg/kg/injection, schedule: Q01DX001 (ip), vehicle: saline sonified).

Turning to `CN1[C@H]2CC[C@@H]1[C@@H](O)CC2`, the T/C (dose: 25.0 mg/kg/injection, schedule: Q01DX005 (ip), vehicle: saline with Tween-80) is 97 % of control; the T/C under setting [2] is 97 % of control; the T/C under setting [3] was 91 % of control.
